Data set [1] concerns HBV in 2.2.15 cells. The experiment in a line: 2.2.15 cells: viral product in cell lysates quantified via quantitative real time PCR. The following applies: Hepatitis B virus, 120 h, day 5 post treatment, 50% reduction of viral product vs no drug controls, readout (qPCR, HBsAg or HBeAg) not specified for the column. The format is cell-based, hepatitis B virus (HBV). In outline: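 HBV product was measured at day 5 by lysate qPCR or by supernatant HBsAg/HBeAg ELISA, in 2.2.15 cells seeded at 35,000/well and exposed to 5-fold compound dilution series (0.5% DMSO). EC50 is 50% reduction of viral product relative to untreated controls.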

Data set [2] can be described thus: Compound induced cellular toxicity in HepG2 cells, ATPlite 1Step. The class given is cell-based. The settings on record: human, three days exposure, 50% reduction of total ATP vs no drug controls. How it is done: At day 3, post seeding cells are treated with ATPlite 1Step according to the manufacturer's instructions.

The molecule `Cc1sccc1-c1c(C2CC2)nn2c1-c1cc(=O)c(C(=O)O)cn1[C@H](C(C)(C)C)C2` [Example 160, (R)-6-(tert-butyl)-2-cyclopropyl-1-(2-methylthiophen-3-yl)-10-oxo-5,6-dihydro-10H-pyrazolo[1,5-a]pyrido[2,1-c]pyrazine-9-carboxylic acid] showed an EC50 in data set [1] of less than 0.1 µM. The CC50 at 3 days in data set [2] was greater than 25 µM.

Regarding `CC(C)(C)[C@@H]1Cn2nc(C3CC3)c(-c3cnsc3)c2-c2cc(=O)c(C(=O)O)cn21` [Example 162, (R)-6-(tert-butyl)-2-cyclopropyl-1-(isothiazol-4-yl)-10-oxo-5,6-dihydro-10H-pyrazolo[1,5-a]pyrido[2,1-c]pyrazine-9-carboxylic acid], in data set [1], the EC50 is less than 0.1 µM. The CC50 at 3 days in data set [2] was greater than 25 µM.

Molecule `CC(C)(C)[C@@H]1Cn2nc(C3CC3)c(-c3cncs3)c2-c2cc(=O)c(C(=O)O)cn21` [Example 163, (R)-6-(tert-butyl)-2-cyclopropyl-10-oxo-1-(thiazol-5-yl)-5,6-dihydro-10H-pyrazolo[1,5-a]pyrido[2,1-c]pyrazine-9-carboxylic acid] yielded an EC50 in data set [1] of less than 0.1 µM. In addition, the CC50 at 3 days in data set [2] is greater than 25 µM.

`CC(C)(C)[C@@H]1Cn2nc(C3CC3)c(-c3cccc4scnc34)c2-c2cc(=O)c(C(=O)O)cn21` [Example 164, (R)-1-(benzo[d]thiazol-4-yl)-6-(tert-butyl)-2-cyclopropyl-10-oxo-5,6-dihydro-10H-pyrazolo[1,5-a]pyrido[2,1-c]pyrazine-9-carboxylic acid]: the EC50 in data set [1] was less than 0.1 µM. In addition, the CC50 at 3 days in data set [2] was greater than 25 µM.

For the molecule `CC(C)(C)[C@@H]1Cn2nc(C3CC3)c(-c3ccccc3O)c2-c2cc(=O)c(C(=O)O)cn21` [Example 165, (R)-6-(tert-butyl)-2-cyclopropyl-1-(2-hydroxyphenyl)-10-oxo-5,6-dihydro-10H-pyrazolo[1,5-a]pyrido[2,1-c]pyrazine-9-carboxylic acid], in data set [1], the concentration giving a half-maximal response (EC50) is less than 0.1 µM. Besides, in data set [2], the CC50 at 3 days is greater than 25 µM.

In turn, `CC(C)(C)[C@@H]1Cn2nc(-c3ccc(F)cc3)c(-c3ccccc3)c2-c2cc(=O)c(C(=O)O)cn21` [Example 166, (R)-6-(tert-butyl)-2-(4-fluorophenyl)-10-oxo-1-phenyl-5,6-dihydro-10H-pyrazolo[1,5-a]pyrido[2,1-c]pyrazine-9-carboxylic acid] gave an EC50 in data set [1] of less than 0.1 µM. For the same molecule, in data set [2], the CC50 at 3 days was greater than 25 µM.

Consider `CC(C)(C)[C@@H]1Cn2nc(-c3ccc(F)cc3)c(-c3cccc(F)c3)c2-c2cc(=O)c(C(=O)O)cn21` [Example 168, (R)-6-(tert-butyl)-1-(3-fluorophenyl)-2-(4-fluorophenyl)-10-oxo-5,6-dihydro-10H-pyrazolo[1,5-a]pyrido[2,1-c]pyrazine-9-carboxylic acid], for which, in data set [1], the EC50 is less than 0.1 µM. This molecule also showed a CC50 at 3 days in data set [2] of 10 to 25 µM.

For the molecule `CC(C)(C)[C@@H]1Cn2nc(-c3ccc(F)cc3)c(-c3ccccc3F)c2-c2cc(=O)c(C(=O)O)cn21` [Example 169, (R)-6-(tert-butyl)-1-(2-fluorophenyl)-2-(4-fluorophenyl)-10-oxo-5,6-dihydro-10H-pyrazolo[1,5-a]pyrido[2,1-c]pyrazine-9-carboxylic acid], in data set [1], the EC50 was less than 0.1 µM. In data set [2], the half-maximal cytotoxic concentration (CC50) at 3 days lay in the range of 10 to 25 µM.

For `Cc1cccc(-c2c(-c3ccc(F)cc3)nn3c2-c2cc(=O)c(C(=O)O)cn2[C@H](C(C)(C)C)C3)c1` [Example 170, (R)-6-(tert-butyl)-2-(4-fluorophenyl)-10-oxo-1-(m-tolyl)-5,6-dihydro-10H-pyrazolo[1,5-a]pyrido[2,1-c]pyrazine-9-carboxylic acid], the EC50 in data set [1] is less than 0.1 µM. In data set [2], this molecule yielded a CC50 at 3 days of 10 to 25 µM.

On to `CC(C)[C@@H]1Cn2nc(-c3ccccc3F)c(-c3ccccc3F)c2-c2cc(=O)c(C(=O)O)cn21` [Example 171, (R)-1,2-bis(2-fluorophenyl)-6-isopropyl-10-oxo-5,6-dihydro-10H-pyrazolo[1,5-a]pyrido[2,1-c]pyrazine-9-carboxylic acid], for which the EC50 in data set [1] was less than 0.1 µM. The CC50 at 3 days in data set [2] was greater than 25 µM.

For the origin of these results see patent US12264159B2, “Functionalized heterocycles as antiviral agents” (Enanta Pharmaceuticals, Inc., priority 2018, dated 2025).
